Results from patent US9546152B2 (MERCK SHARP & DOHME CORP., priority 2012, dated 2017).

Experiments:
human orexin-2 receptor [1] = molecular target: T1, human orexin-2 receptor (Homo sapiens (Human), UniProt O43614); assay: FLIPR Ca2+ Flux Assay, orexin-2 receptor; type: cell-based; conditions: CHO cells expressing the human orexin-2 receptor; agonist 70 pM Ala-6,12 human orexin-A; read-out: hOX2R FLIPR IC50
Procedure, shortened: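 CHO cells expressing rat OX1 or human OX2 receptor, Fluo-4AM loaded; compounds preincubated 5 min, then challenged with 70 pM Ala-6,12 human orexin-A in HBSS/20 mM HEPES/0.1% BSA/2.5 mM probenecid, pH 7.4. FLIPR fluorescence peak height over 5 min compared with agonist-only response.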

human orexin-2 receptor [2] = molecular target: T1, human orexin-2 receptor; assay: radioligand binding assay, orexin-2 receptor; conditions: membranes prepared from CHO cells expressing the OX2 receptor; read-out: hOX2R BIND hKi
rat orexin-1 receptor = rat orexin-1 receptor (Rattus norvegicus (Rat), UniProt P56718); assay: FLIPR Ca2+ Flux Assay, orexin-1 receptor; type: cell-based; conditions: CHO cells expressing the rat orexin-1 receptor; agonist 70 pM Ala-6,12 human orexin-A; read-out: hOX1R FLIPR IC50
Description: In a typical experiment the OX1 and OX2 receptor antagonistic activity of the compounds of the present invention was determined in accordance with the following experimental method. For intracellular calcium measurements, Chinese hamster ovary (CHO) cells expressing the rat orexin-1 receptor or the human orexin-2 receptor, are grown in Iscove's modified DMEM containing 2 mM L-glutamine, […], 1% hypoxanthine-thymidine supplement, 100 U/ml penicillin, 100 μg/ml streptomycin and 10% heat-inactivated fetal calf serum (FCS). The cells are seeded at 20,000 cells/well into Becton-Dickinson black 384-well clear bottom sterile plates coated with poly-D-lysine. All reagents were from GIBCO-Invitrogen Corp. The seeded plates are incubated overnight at 37° C. and 5% CO2. Ala-6,12 human orexin-A as the agonist is prepared as a 1 mM stock solution in 1% bovine serum albumin (BSA) and diluted in assay buffer (HBSS containing 20 mM HEPES, 0.1% BSA and 2.5 mM probenecid, pH7.4) for use in the assay at a final concentration of 70 pM. Test compounds are prepared as 10 mM stock solution in DMSO, then diluted in 384-well plates, first in DMSO, then assay buffer. On the day of the assay, cells are washed 3 times with 100 μl assay buffer and then incubated for 60 min (37° C., 5% CO2) in 60 μl assay buffer containing 1 μM Fluo-4AM ester, 0.02% pluronic acid, and 1% BSA. The dye loading solution is then aspirated and cells are washed 3 times with 100 μl assay buffer. 30 μl of that same buffer is left in each well. Within the Fluorescent Imaging Plate Reader (FLIPR, Molecular Devices), test compounds are added to the plate in a volume of 25 μl, incubated for 5 min and finally 25 μl of agonist is added. Fluorescence is measured for each well at 1 second intervals for 5 minutes and the height of each fluorescence peak is compared to the height of the fluorescence peak induced by 70 pM Ala-6,12 orexin-A with buffer in place of antagonist. […] Alternatively, compound potency can be assessed by a radioligand binding assay (described in Bergman et. al. Bioorg. Med. Chem. Lett. 2008, 18, 1425-1430) in which the inhibition constant (Ki) is determined in membranes prepared from CHO cells expressing either the OX1 or OX2 receptor. The intrinsic orexin receptor antagonist activity of a compound which may be used in the present invention may be determined by these assays.

rat orexin-1 receptor, sequence (P56718 whole entry): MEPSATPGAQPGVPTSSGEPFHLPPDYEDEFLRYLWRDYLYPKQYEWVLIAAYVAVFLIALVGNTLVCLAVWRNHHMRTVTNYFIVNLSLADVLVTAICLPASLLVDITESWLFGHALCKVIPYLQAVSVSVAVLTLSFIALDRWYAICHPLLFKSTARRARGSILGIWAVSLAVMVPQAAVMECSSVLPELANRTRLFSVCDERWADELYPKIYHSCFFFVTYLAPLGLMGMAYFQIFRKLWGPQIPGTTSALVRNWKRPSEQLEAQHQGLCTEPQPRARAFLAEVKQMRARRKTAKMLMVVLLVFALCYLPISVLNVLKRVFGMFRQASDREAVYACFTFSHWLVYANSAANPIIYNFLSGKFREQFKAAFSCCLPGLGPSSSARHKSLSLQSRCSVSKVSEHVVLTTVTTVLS
T1 sequence (O43614 whole entry): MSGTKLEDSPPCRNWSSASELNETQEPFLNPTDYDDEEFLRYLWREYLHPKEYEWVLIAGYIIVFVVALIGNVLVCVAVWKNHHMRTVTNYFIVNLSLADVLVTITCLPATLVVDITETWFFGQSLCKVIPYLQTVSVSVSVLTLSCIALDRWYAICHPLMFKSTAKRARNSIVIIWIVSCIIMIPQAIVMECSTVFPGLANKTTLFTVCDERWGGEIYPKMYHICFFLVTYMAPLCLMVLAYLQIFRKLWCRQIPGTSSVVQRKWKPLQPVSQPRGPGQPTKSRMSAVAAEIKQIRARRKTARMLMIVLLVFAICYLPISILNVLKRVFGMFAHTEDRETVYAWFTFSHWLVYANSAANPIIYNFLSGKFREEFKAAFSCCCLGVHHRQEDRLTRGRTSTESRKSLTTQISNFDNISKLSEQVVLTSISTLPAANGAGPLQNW

Row | Compound | IC50 (human orexin-2 receptor [1]) [nM] | Ki (human orexin-2 receptor [2]) [nM] | IC50 (rat orexin-1 receptor) [nM]
1 | Cc1nc(-c2ccccc2C(=O)N2C[C@H](Oc3nccc(C#N)c3C)CC[C@H]2C)no1 [Example 42, 3-methyl-2-{[(3R,6R)-6-methyl-1-{[2-(5-methyl-1,2,4-oxadiazol-3-yl)phenyl]carbonyl}piperidin-3-yl]oxy}pyridine-4-carbonitrile] | 12 | 1 | 776
2 | Cc1cnn(-c2ccccc2C(=O)N2C[C@H](Oc3nccc(C#N)c3C)CC[C@H]2C)c1 [Example 43, 3-methyl-2-{[(3R,6R)-6-methyl-1-{[2-(4-methyl-1H-pyrazol-1-yl)phenyl]carbonyl}piperidin-3-yl]oxy}pyridine-4-carbonitrile] | 10 | 0.9 | 722
3 | Cc1c(C#N)ccnc1O[C@@H]1CC[C@@H](C)N(C(=O)c2cn(C)nc2-c2ccccc2)C1 [Example 45, 3-methyl-2-({(3R,6R)-6-methyl-1-[(1-methyl-3-phenyl-1H-pyrazol-4-yl)carbonyl]piperidin-3-yl}oxy)pyridine-4-carbonitrile] | 91 | 12.7 | 4960
4 | Cc1c(C#N)ccnc1O[C@@H]1CC[C@@H](C)N(C(=O)c2cn(C)nc2-c2nccs2)C1 [Example 46, 3-methyl-2-{[(3R,6R)-6-methyl-1-{[1-methyl-3-(1,3-thiazol-2-yl)-1H-pyrazol-4-yl]carbonyl}piperidin-3-yl]oxy}pyridine-4-carbonitrile] | 111 | 14.2 | > 10000
5 | Cc1nsc(-c2ccccc2)c1C(=O)N1C[C@H](Oc2nccc(C#N)c2C)CC[C@H]1C [Example 47, 3-methyl-2-({(3R,6R)-6-methyl-1-[(3-methyl-5-phenylisothiazol-4-yl)carbonyl]piperidin-3-yl}oxy)pyridine-4-carbonitrile] | 82 | 4.9 | 2360
6 | COc1ccc(-c2ccccc2C(=O)N2C[C@H](Oc3nccc(C#N)c3C)CC[C@H]2C)cn1 [Example 49, 2-{[(3R,6R)-1-{[2-(6-methoxypyridin-3-yl)phenyl]carbonyl}-6-methylpiperidin-3-yl]oxy}-3-methylpyridine-4-carbonitrile] | 15 | 0.5 | 469
7 | Cc1ccc(C(=O)N2C[C@H](Oc3nccc(C#N)c3C)CC[C@H]2C)c(C2CC2)c1 [Example 51, 2-({(3R,6R)-1-[(2-cyclopropyl-4-methylphenyl)carbonyl]-6-methylpiperidin-3-yl}oxy)-3-methylpyridine-4-carbonitrile] | 21 | 0.6 | 2100
8 | COc1ccc(C(=O)N2C[C@H](Oc3nccc(C#N)c3C)CC[C@H]2C)c(C2CC2)c1 [Example 52, 2-({(3R,6R)-1-[(2-cyclopropyl-4-methoxyphenyl)carbonyl]-6-methylpiperidin-3-yl}oxy)-3-methylpyridine-4-carbonitrile] | 56 | 4.4 | 7030
9 | Cc1c(C#N)ccnc1O[C@@H]1CC[C@@H](C)N(C(=O)c2ccc(F)cc2C2CC2)C1 [Example 53, 2-({(3R,6R)-1-[(2-cyclopropyl-4-fluorophenyl)carbonyl]-6-methylpiperidin-3-yl}oxy)-3-methylpyridine-4-carbonitrile] | 26 | 1.6 | 5780
10 | Cc1c(C#N)ccnc1O[C@@H]1CC[C@@H](C)N(C(=O)c2ccc(CO)cc2-c2ccccc2)C1 [Example 54, 2-{[(3R,6R)-1-{[5-(hydroxymethyl)biphenyl-2-yl]carbonyl}-6-methylpiperidin-3-yl]oxy}-3-methylpyridine-4-carbonitrile] | 37 | 3.2 | 1390
11 | Cc1c(C#N)ccnc1O[C@@H]1CC[C@@H](C)N(C(=O)c2cc(F)ccc2-c2ccccn2)C1 [Example 56] | 30 | 1.4 | 2120
12 | Cc1nc(C(=O)N2C[C@H](Oc3nccc(C#N)c3C)CC[C@H]2C)c(-c2ccccc2)s1 [Example 57, 3-methyl-2-({(3R,6R)-6-methyl-1-[(2-methyl-5-phenyl-1,3-thiazol-4-yl)carbonyl]piperidin-3-yl}oxy)pyridine-4-carbonitrile] | 23 | 1.4 | 521
13 | Cc1noc(-c2ccccc2C(=O)N2C[C@H](Oc3nccc(C#N)c3C)CC[C@H]2C)n1 [Example 58, 3-methyl-2-{[(3R,6R)-6-methyl-1-{[2-(3-methyl-1,2,4-oxadiazol-5-yl)phenyl]carbonyl}piperidin-3-yl]oxy}pyridine-4-carbonitrile] | 12 | 0.5 | 733
14 | CCc1ccccc1C(=O)N1C[C@H](Oc2nccc(C#N)c2C)CC[C@H]1C [Example 59, 2-({(3R,6R)-1-[(2-ethylphenyl)carbonyl]-6-methylpiperidin-3-yl}oxy)-3-methylpyridine-4-carbonitrile] | 31 | 3.7 | > 10000
15 | Cc1c(C#N)ccnc1O[C@@H]1CC[C@@H](C)N(C(=O)c2cccnc2-c2ccccc2)C1 [Example 60, 3-methyl-2-({(3R,6R)-6-methyl-1-[(2-phenylpyridin-3-yl)carbonyl]piperidin-3-yl}oxy)pyridine-4-carbonitrile] | 26 | 2.6 | 4670
16 | CSc1ccccc1C(=O)N1C[C@H](Oc2nccc(C#N)c2C)CC[C@H]1C [Example 61, 3-methyl-2-{[(3R,6R)-6-methyl-1-{[2-(methylsulfanyl)phenyl]carbonyl}piperidin-3-yl]oxy}pyridine-4-carbonitrile] | 35 | 1.4 | 7950
17 | Cc1c(C#N)ccnc1O[C@@H]1CC[C@@H](C)N(C(=O)c2ccc(OCF)cc2-n2nccn2)C1 [Example 64, 2-{[(3R,6R)-1-{[4-(fluoromethoxy)-2-(2H-1,2,3-triazol-2-yl)phenyl]carbonyl}-6-methylpiperidin-3-yl]oxy}-3-methylpyridine-4-carbonitrile] | 35 | 3.3 | 4490
18 | Cc1c(C#N)ccnc1O[C@@H]1CC[C@@H](C)N(C(=O)c2cnc(Cl)cc2-n2nccn2)C1 [Example 67, 2-{[(3R,6R)-1-{[6-chloro-4-(2H-1,2,3-triazol-2-yl)pyridin-3-yl]carbonyl}-6-methylpiperidin-3-yl]oxy}-3-methylpyridine-4-carbonitrile] | 35 | 4.7 | > 10000
19 | CCOc1ncccc1C(=O)N1C[C@H](Oc2nccc(C#N)c2C)CC[C@H]1C [Example 68] | 36 | 5.9 | > 10000
20 | Cc1c(C#N)ccnc1O[C@@H]1CC[C@@H](C)N(C(=O)c2ccccc2-n2ncnn2)C1 [Example 70, 3-methyl-2-{[(3R,6R)-6-methyl-1-{[2-(2H-tetrazol-2-yl)phenyl]carbonyl}piperidin-3-yl]oxy}pyridine-4-carbonitrile] | 7.7 | 1.6 | 4590
21 | Cc1c(C#N)ccnc1O[C@@H]1CC[C@@H](C)N(C(=O)c2cc(C#N)ccc2-n2nccn2)C1 [Example 71, 2-{[(3R,6R)-1-{[5-cyano-2-(2H-1,2,3-triazol-2-yl)phenyl]carbonyl}-6-methylpiperidin-3-yl]oxy}-3-methylpyridine-4-carbonitrile] | 40 | 5.5 | 1850
